Measurements published in PMC5218480 (PLoS ONE, 2017).

Tested on: MV-4-11 cells
Experiment: Gene expression microarray analysis (Affymetrix PrimeView) and GSEA
Assay type: cell-based, human
Parameters: RFU PODN (11730768_x_at) / Fold change /veh PODN (11730768_x_at) / RFU LINC00158 (11744669_a_at) / Fold change /veh LINC00158 (11744669_a_at) / RFU DUSP10 (11751237_a_at) / Fold change /veh DUSP10 (11751237_a_at) / RFU ID3 (11757404_x_at) / Fold change /veh ID3 (11757404_x_at) / RFU PLEKHG5 (11737974_s_at) / Fold change /veh PLEKHG5 (11737974_s_at) / RFU LRRC4B (11730491_at) / Fold change /veh LRRC4B (11730491_at) / RFU GIMAP4 (11747438_a_at) / Fold change /veh GIMAP4 (11747438_a_at) / RFU KRT8 (11758183_x_at) / Fold change /veh KRT8 (11758183_x_at) / RFU CNN1 (11734310_a_at) / Fold change /veh CNN1 (11734310_a_at) / RFU VPS37D (11726825_at) / Fold change /veh VPS37D (11726825_at) / RFU C10orf10 (11716522_x_at) / Fold change /veh C10orf10 (11716522_x_at) / RFU KIR2DL2 /// KIR2DL4 /// KIR2DL5A /// KIR2DL5B /// KIR2DS1 /// KIR2DS2 /// KIR2DS3 /// KIR2DS4 /// KIR3DL3 /// KIR3DL3 /// KIR3DS1 (11738374_at) / Fold change /veh KIR2DL2 /// KIR2DL4 /// KIR2DL5A /// KIR2DL5B /// KIR2DS1 /// KIR2DS2 /// KIR2DS3 /// KIR2DS4 /// KIR3DL3 /// KIR3DL3 /// KIR3DS1 (11738374_at) / RFU C1QL1 (11718748_at) / Fold change /veh C1QL1 (11718748_at) / RFU TMPRSS4 (11747572_a_at) / Fold change /veh TMPRSS4 (11747572_a_at) / RFU HAMP (11756126_x_at) / Fold change /veh HAMP (11756126_x_at) / RFU RNFT2 (11725882_a_at) / Fold change /veh RNFT2 (11725882_a_at) / RFU NR4A2 (11747474_a_at) / Fold change /veh NR4A2 (11747474_a_at) / RFU ABCC12 (11746883_a_at) / Fold change /veh ABCC12 (11746883_a_at) / RFU TMEM136 (11760407_x_at) / Fold change /veh TMEM136 (11760407_x_at) / RFU CLDN22 /// WWC2 (11732394_at) / Fold change /veh CLDN22 /// WWC2 (11732394_at) / RFU HLA-DPB1 (11760878_x_at) / Fold change /veh HLA-DPB1 (11760878_x_at) / RFU SPINT1 (11716480_a_at) / Fold change /veh SPINT1 (11716480_a_at) / RFU GAP43 (11754022_s_at) / Fold change /veh GAP43 (11754022_s_at) / RFU A4GNT (11735810_at) / Fold change /veh A4GNT (11735810_at) / RFU PRB3 (11715151_x_at) / Fold change /veh PRB3 (11715151_x_at) / RFU TUBB4B (11761932_at) / Fold change /veh TUBB4B (11761932_at) / RFU CAPN14 (11732068_a_at) / Fold change /veh CAPN14 (11732068_a_at) / RFU TMCC2 (11721928_a_at) / Fold change /veh TMCC2 (11721928_a_at) / RFU IRGQ (11745062_a_at) / Fold change /veh IRGQ (11745062_a_at) / RFU FAM174B (11720279_a_at) / Fold change /veh FAM174B (11720279_a_at) / RFU TMPRSS4 (11748680_a_at) / Fold change /veh TMPRSS4 (11748680_a_at) / RFU FAM212B (11763350_a_at) / Fold change /veh FAM212B (11763350_a_at) / RFU PLEKHG5 (11743358_a_at) / Fold change /veh PLEKHG5 (11743358_a_at) / RFU ZSCAN30 (11745921_a_at) / Fold change /veh ZSCAN30 (11745921_a_at) / RFU CMKLR1 (11741424_a_at) / Fold change /veh CMKLR1 (11741424_a_at) / RFU LOC101060620 /// MAPK8IP1 (11723275_at) / Fold change /veh LOC101060620 /// MAPK8IP1 (11723275_at) / RFU SPTSSB (11747773_x_at) / Fold change /veh SPTSSB (11747773_x_at) / RFU PRSS12 (11739890_at) / Fold change /veh PRSS12 (11739890_at) / RFU BIN1 (11741810_x_at) / Fold change /veh BIN1 (11741810_x_at) / RFU WNT11 (11732464_a_at) / Fold change /veh WNT11 (11732464_a_at) / RFU C10orf10 (11716521_a_at) / Fold change /veh C10orf10 (11716521_a_at) / RFU C5orf56 (11738089_at) / Fold change /veh C5orf56 (11738089_at) / RFU CYB561 (11721691_x_at) / Fold change /veh CYB561 (11721691_x_at) / RFU ANKRD19P (11752326_a_at) / Fold change /veh ANKRD19P (11752326_a_at) / RFU OR2T12 /// OR2T33 /// OR2T8 (11738714_s_at) / Fold change /veh OR2T12 /// OR2T33 /// OR2T8 (11738714_s_at) / RFU VCAN (11748164_a_at) / Fold change /veh VCAN (11748164_a_at) / RFU JSRP1 (11732532_at) / Fold change /veh JSRP1 (11732532_at) / RFU KRTAP10-11 (11738290_x_at) / Fold change /veh KRTAP10-11 (11738290_x_at) / RFU MYO3A (11730013_a_at) / Fold change /veh MYO3A (11730013_a_at) / RFU EBF3 (11725865_a_at) / Fold change /veh EBF3 (11725865_a_at) / RFU CAMK2N1 (11719241_x_at) / Fold change /veh CAMK2N1 (11719241_x_at) / RFU C5orf56 (11738088_a_at) / Fold change /veh C5orf56 (11738088_a_at) / RFU OLFML3 (11715873_a_at) / Fold change /veh OLFML3 (11715873_a_at) / RFU LOC100653217 /// NTM (11731650_a_at) / Fold change /veh LOC100653217 /// NTM (11731650_a_at) / RFU MAPK11 (11762145_a_at) / Fold change /veh MAPK11 (11762145_a_at) / RFU FIZ1 (11724087_x_at) / Fold change /veh FIZ1 (11724087_x_at) / RFU OASL (11726364_x_at) / Fold change /veh OASL (11726364_x_at) / RFU SOX15 (11748057_x_at) / Fold change /veh SOX15 (11748057_x_at) / RFU CD79A (11719716_a_at) / Fold change /veh CD79A (11719716_a_at) / RFU HIST1H1D (11736915_at) / Fold change /veh HIST1H1D (11736915_at) / RFU CASKIN2 (11723855_a_at) / Fold change /veh CASKIN2 (11723855_a_at) / RFU LOC730098 (11760151_x_at) / Fold change /veh LOC730098 (11760151_x_at) / RFU OR4N2 (11742367_at) / Fold change /veh OR4N2 (11742367_at) / RFU PRRT2 (11749266_a_at) / Fold change /veh PRRT2 (11749266_a_at) / RFU SNX32 (11753110_a_at) / Fold change /veh SNX32 (11753110_a_at) / RFU CDHR5 (11726645_a_at) / Fold change /veh CDHR5 (11726645_a_at) / RFU RCAN1 (11760418_a_at) / Fold change /veh RCAN1 (11760418_a_at) / RFU FAM167A (11723789_a_at) / Fold change /veh FAM167A (11723789_a_at) / RFU FAM26E (11764081_at) / Fold change /veh FAM26E (11764081_at) / RFU ISYNA1 (11749810_s_at) / Fold change /veh ISYNA1 (11749810_s_at) / RFU ACY1 (11761880_at) / Fold change /veh ACY1 (11761880_at) / RFU 11764098_at / Fold change /veh 11764098_at / RFU SAMD14 (11745864_x_at) / Fold change /veh SAMD14 (11745864_x_at) / RFU NPB (11741838_a_at) / Fold change /veh NPB (11741838_a_at) / RFU TMPRSS6 (11731388_a_at) / Fold change /veh TMPRSS6 (11731388_a_at) / RFU KRTAP10-2 (11738614_at) / Fold change /veh KRTAP10-2 (11738614_at) / RFU ARHGAP8 /// PRR5-ARHGAP8 (11727945_x_at) / Fold change /veh ARHGAP8 /// PRR5-ARHGAP8 (11727945_x_at) / RFU KRTAP5-7 /// NADSYN1 (11734609_at) / Fold change /veh KRTAP5-7 /// NADSYN1 (11734609_at) / RFU RASL12 (11751679_a_at) / Fold change /veh RASL12 (11751679_a_at) / RFU CDKN2B (11736163_a_at) / Fold change /veh CDKN2B (11736163_a_at) / RFU PRF1 (11729649_at) / Fold change /veh PRF1 (11729649_at) / RFU, ZNF638 /// ZNF638-IT1 / Fold change vs veh, ZNF638 /// ZNF638-IT1 / RFU, PANK3 / Fold change vs veh, PANK3 / RFU, SH3YL1 / Fold change vs veh, SH3YL1 / RFU, ZEB2 / Fold change vs veh, ZEB2 / RFU, NRIP1 / Fold change vs veh, NRIP1 / RFU, PTTG1IP / Fold change vs veh, PTTG1IP / RFU, CAPN2 / Fold change vs veh, CAPN2 / RFU, MED14 / Fold change vs veh, MED14 / RFU, SNORA58 / Fold change vs veh, SNORA58 / RFU, C1orf63 / Fold change vs veh, C1orf63 / RFU, LRRFIP1 / Fold change vs veh, LRRFIP1 / RFU, NDUFAF7 / Fold change vs veh, NDUFAF7 / RFU, SLC12A2 / Fold change vs veh, SLC12A2 / RFU, IBTK / Fold change vs veh, IBTK / RFU, ESF1 / Fold change vs veh, ESF1 / Fold change vs veh, TMEM50B / RFU, TAOK1 / Fold change vs veh, TAOK1 / RFU, ACBD3 / Fold change vs veh, ACBD3 / RFU, TMA16 / Fold change vs veh, TMA16 / RFU, RWDD3 / Fold change vs veh, RWDD3 / RFU, BCAT1 / Fold change vs veh, BCAT1 / RFU, EDEM3 / Fold change vs veh, EDEM3 / RFU, TMEM33 / Fold change vs veh, TMEM33 / RFU, WDR75 / Fold change vs veh, WDR75 / RFU, AHCTF1 / Fold change vs veh, AHCTF1 / RFU, TFRC / Fold change vs veh, TFRC / RFU, ZDHHC17 / Fold change vs veh, ZDHHC17 / RFU, NOM1 / Fold change vs veh, NOM1 / RFU, ARL8B / Fold change vs veh, ARL8B / RFU, ZBTB11 / Fold change vs veh, ZBTB11 / RFU, TAMM41 / Fold change vs veh, TAMM41 / RFU, KIAA1704 /// LOC100996395 / Fold change vs veh, KIAA1704 /// LOC100996395 / RFU, ING1 / Fold change vs veh, ING1 / RFU, TRMT61B / Fold change vs veh, TRMT61B / RFU, FUBP3 / Fold change vs veh, FUBP3 / RFU, TP53 / Fold change vs veh, TP53 / RFU, TNKS2 / Fold change vs veh, TNKS2 / RFU, ZFP14 / Fold change vs veh, ZFP14 / RFU, ACTR2 / Fold change vs veh, ACTR2 / RFU, PPP3R1 / Fold change vs veh, PPP3R1 / RFU, PIK3R1 / Fold change vs veh, PIK3R1 / RFU, HNRNPA1 / Fold change vs veh, HNRNPA1 / RFU, RNF170 / Fold change vs veh, RNF170 / RFU, ZNF28 / Fold change vs veh, ZNF28 / RFU, RNGTT / Fold change vs veh, RNGTT / RFU, OGT / Fold change vs veh, OGT / RFU, BRD1 / Fold change vs veh, BRD1 / RFU, MARS / Fold change vs veh, MARS / RFU, ZNF655 / Fold change vs veh, ZNF655 / RFU, FAHD1 / Fold change vs veh, FAHD1 / RFU, BDP1 / Fold change vs veh, BDP1 / RFU, LRRCC1 / Fold change vs veh, LRRCC1 / RFU, ARID1A / Fold change vs veh, ARID1A / RFU, ZNF146 / Fold change vs veh, ZNF146 / RFU, ZNF330 / Fold change vs veh, ZNF330 / RFU, GPN3 / Fold change vs veh, GPN3 / RFU, C9orf123 / Fold change vs veh, C9orf123 / RFU, N4BP2L2 / Fold change vs veh, N4BP2L2 / RFU, ARFIP1 / Fold change vs veh, ARFIP1 / RFU, FAM179B / Fold change vs veh, FAM179B / RFU, BCL10 / Fold change vs veh, BCL10 / RFU, UHRF1BP1L / Fold change vs veh, UHRF1BP1L / RFU, BET1 / Fold change vs veh, BET1 / RFU, CNOT2 / Fold change vs veh, CNOT2 / RFU, ZNF268 / Fold change vs veh, ZNF268 / Fold change vs veh, ZNF507 / RFU, DGCR2 / Fold change vs veh, DGCR2 / RFU, WDSUB1 / Fold change vs veh, WDSUB1 / Fold change vs veh, HSP90B1 /// MIR3652 / RFU, ADSS / Fold change vs veh, ADSS / RFU, GK / Fold change vs veh, GK / RFU, ZNF148 / Fold change vs veh, ZNF148 / RFU, TAF9 / Fold change vs veh, TAF9 / RFU, SLC1A5 / Fold change vs veh, SLC1A5 / RFU, SLMO2 / Fold change vs veh, SLMO2 / RFU, ABCC4 / Fold change vs veh, ABCC4 / RFU, LOC101060439 /// RAP1B / Fold change vs veh, LOC101060439 /// RAP1B / RFU, RFX7 / Fold change vs veh, RFX7 / RFU, GTPBP10 / Fold change vs veh, GTPBP10 / RFU, CNEP1R1 / Fold change vs veh, CNEP1R1 / RFU, BIVM-ERCC5 /// ERCC5 / Fold change vs veh, BIVM-ERCC5 /// ERCC5 / RFU, ILF3 / Fold change vs veh, ILF3 / RFU 11762660_at / Fold change /veh 11762660_at / RFU VCAN (11757783_s_at) / Fold change /veh VCAN (11757783_s_at) / RFU DDX43 (11728927_at) / Fold change /veh DDX43 (11728927_at) / RFU KRT8 (11758188_x_at) / Fold change /veh KRT8 (11758188_x_at) / RFU NKD1 (11759106_at) / Fold change /veh NKD1 (11759106_at) / RFU SRD5A1 (11742802_a_at) / Fold change /veh SRD5A1 (11742802_a_at) / RFU TPSAB1 /// TPSB2 (11721975_s_at) / Fold change /veh TPSAB1 /// TPSB2 (11721975_s_at) / RFU GSTM3 (11746129_a_at) / Fold change /veh GSTM3 (11746129_a_at) / RFU IL23R (11737362_x_at) / Fold change /veh IL23R (11737362_x_at) / RFU TMEM51 (11727254_a_at) / Fold change /veh TMEM51 (11727254_a_at) / RFU PIWIL2 (11732686_x_at) / Fold change /veh PIWIL2 (11732686_x_at) / RFU ORM1 (11744905_x_at) / Fold change /veh ORM1 (11744905_x_at) / RFU CCDC152 (11743942_at) / Fold change /veh CCDC152 (11743942_at) / RFU ECM1 (11717891_a_at) / Fold change /veh ECM1 (11717891_a_at) / RFU IL23R (11748794_a_at) / Fold change /veh IL23R (11748794_a_at) / RFU TNFAIP8L3 (11732012_x_at) / Fold change /veh TNFAIP8L3 (11732012_x_at) / RFU MBOAT4 (11741988_at) / Fold change /veh MBOAT4 (11741988_at) / RFU 11764193_at / Fold change /veh 11764193_at / RFU TMEM53 (11763286_at) / Fold change /veh TMEM53 (11763286_at) / RFU MAGEB2 (11727129_at) / Fold change /veh MAGEB2 (11727129_at) / RFU TMEM200A (11744735_a_at) / Fold change /veh TMEM200A (11744735_a_at) / RFU CCDC152 (11751479_a_at) / Fold change /veh CCDC152 (11751479_a_at) / RFU FAM211A (11726209_a_at) / Fold change /veh FAM211A (11726209_a_at) / RFU RGS16 (11746705_a_at) / Fold change /veh RGS16 (11746705_a_at) / RFU VCAN (11755009_s_at) / Fold change /veh VCAN (11755009_s_at) / RFU RHOB (11743442_s_at) / Fold change /veh RHOB (11743442_s_at) / RFU RGS16 (11720943_a_at) / Fold change /veh RGS16 (11720943_a_at) / RFU RGS16 (11720944_at) / Fold change /veh RGS16 (11720944_at) / RFU, VPS4B / Fold change vs veh, VPS4B / RFU, CREB1 / Fold change vs veh, CREB1 / RFU, DNAJC13 / Fold change vs veh, DNAJC13 / RFU, GNAQ / Fold change vs veh, GNAQ / RFU, CDK5R1 / Fold change vs veh, CDK5R1 / RFU, ZRANB3 / Fold change vs veh, ZRANB3 / RFU, CUL4A / Fold change vs veh, CUL4A / RFU, CCNY / Fold change vs veh, CCNY / RFU, UFL1 / Fold change vs veh, UFL1 / RFU, COG3 / Fold change vs veh, COG3 / RFU, DIAPH2 / Fold change vs veh, DIAPH2 / RFU, SKA2 / Fold change vs veh, SKA2 / RFU, AFF3 / Fold change vs veh, AFF3 / RFU, LMF1 / Fold change vs veh, LMF1 / RFU, IPO11 / Fold change vs veh, IPO11 / RFU, DFFB / Fold change vs veh, DFFB / RFU, FOXP1 / Fold change vs veh, FOXP1 / RFU, CARD8 / Fold change vs veh, CARD8 / RFU, STRN3 / Fold change vs veh, STRN3 / RFU, ADK / Fold change vs veh, ADK / RFU, RASSF2 / Fold change vs veh, RASSF2 / RFU, WIPF1 / Fold change vs veh, WIPF1 / RFU, LARP1B / Fold change vs veh, LARP1B / RFU, RASA1 / Fold change vs veh, RASA1 / RFU, RB1 / Fold change vs veh, RB1 / RFU, PPFIA1 / Fold change vs veh, PPFIA1 / RFU, MAT2A / Fold change vs veh, MAT2A / RFU, CCT5 / Fold change vs veh, CCT5 / RFU, WDR92 / Fold change vs veh, WDR92 / RFU, CUX1 / Fold change vs veh, CUX1 / RFU, TTC7A / Fold change vs veh, TTC7A / RFU, TMEM135 / Fold change vs veh, TMEM135 / RFU, DEPTOR / Fold change vs veh, DEPTOR / RFU, CPM / Fold change vs veh, CPM / RFU, DNAJB6 / Fold change vs veh, DNAJB6 / RFU, CACNA2D3 / Fold change vs veh, CACNA2D3 / RFU, DTX4 / Fold change vs veh, DTX4 / RFU, TFCP2 / Fold change vs veh, TFCP2 / RFU, GMCL1 /// GMCL1P1 / Fold change vs veh, GMCL1 /// GMCL1P1 / RFU, AEBP2 / Fold change vs veh, AEBP2 / RFU, SNHG1 /// SNORD22 /// SNORD25 /// SNORD26 /// SNORD27 /// SNORD28 /// SNORD29 /// SNORD31 / Fold change vs veh, SNHG1 /// SNORD22 /// SNORD25 /// SNORD26 /// SNORD27 /// SNORD28 /// SNORD29 /// SNORD31 / Fold change (Aza/veh), C12orf56 (ProbeSet 11735607_a_at) / Fold change (ACY-1035/veh), C12orf56 (ProbeSet 11735607_a_at) / Fold change (Aza/veh), FGFR1OP (ProbeSet 11751329_s_at) / Fold change (ACY-1035/veh), FGFR1OP (ProbeSet 11751329_s_at) / Fold change (Aza/veh), VPS36 (ProbeSet 11739960_a_at) / Fold change (ACY-1035/veh), VPS36 (ProbeSet 11739960_a_at) / RFU SYPL1 (11715823_x_at) / Fold change /veh SYPL1 (11715823_x_at) / RFU IGFBP7 (11715501_s_at) / Fold change /veh IGFBP7 (11715501_s_at) / RFU REEP3 (11722064_at) / Fold change /veh REEP3 (11722064_at) / RFU IGLL1 (11728026_x_at) / Fold change /veh IGLL1 (11728026_x_at): dose or concentration left out as unconfirmed
Settings: MV-4-11 cells, 48 hours

Q: With `Nc1ncn([C@@H]2O[C@H](CO)[C@@H](O)[C@H]2O)c(=O)n1` [azacitidine] as the molecule, how does the “Fold change /veh FAM212B (11763350_a_at)” value read?
A: 1.13
